Experimental data reported in BindingDB's records for doi:10.1021/jm00396a006 (Upjohn, 1988).
Numbered stars: 1 amine (or outer) side, 2 acyl side, 3 side chain; on linkers, the order of the positions; unused ones are H or OH. Square brackets hold non-standard residues; d marks the D form. Peptide text beside a SMILES is read from it. * marks the point of attachment. ξ: configuration not given here. Sta(3ξ) = CC(C)C[C@H](N[*:1])C(O)CC(=O)[*:2]; X1 = CC(C)CC(N[*:1])C(O)CC(=O)[*:2]; For = O=C*

Molecular target: Renin (Sus scrofa)
Assay: In vitro inhibitory activity towards porcine kidney renin

Row | SMILES | IC50 [nM]
1 | CC[C@H](C)[C@H](NC(=O)CC(O)[C@H](CC(C)C)NC(=O)[C@H](Cc1cnc[nH]1)NC(=O)[C@H](Cc1ccccc1)NC(=O)[C@@H]1CCCN1C(=O)[C@H](Cc1cn(C=O)c2ccccc12)NC(C)=O)C(N)=O (stereo partly drawn) [Ac-Ftr-Pro-Phe-His-Sta-Ile-NH2] | 120
2 | CC(=O)N[C@@H](Cc1cn(C=O)c2ccccc12)C(=O)N1CCC[C@H]1C(=O)N[C@@H](Cc1ccccc1)C(=O)N[C@@H](Cc1cnc[nH]1)C(=O)NC(CC(C)C)C(O)CC(=O)N[C@H](C(=O)N[C@@H](Cc1cn(C=O)c2ccccc12)C(N)=O)C(C)C (stereo partly drawn) [Ac-Ftr-Pro-Phe-His-Sta-Val-Ftr-NH2] (Ac-W(For)PFH[X1]VW(For)-NH2) | 4.9
3 | CC[C@H](C)[C@H](NC(=O)CC(O)[C@H](CC(C)C)NC(=O)[C@H](Cc1cnc[nH]1)NC(=O)[C@H](Cc1ccccc1)NC(=O)[C@@H]1CCCN1C(=O)[C@H](Cc1cnc[nH]1)NC(C)=O)C(N)=O (stereo partly drawn) [Ac-His-Pro-Phe-His-Sta-Ile-NH2] (Ac-HPFH[Sta(3ξ)]I-NH2) | 1500
